The subject of assay [1] is Aβ production in Chinese hamster ovary cells that over-express human APP695 with the London and Swedish mutations. Put plainly: Cellular Aβ IC50 determination (Aβ40 sandwich ELISA). Particulars: 24 h.
The next assay has as its target memapsin 2 (Homo sapiens, UniProt P56817). Put plainly: Inhibition of memapsin 2 catalytic activity (Ki). The format is biochemical. Particulars: memapsin 2, pH 4, 37° C.; read-out: M2K. The method, then: Potency of compounds were determined by measurement of their inhibition of memapsin 2 catalytic activity toward a fluorescent substrate. […] Briefly, assays were performed at pH 4, 37° C., by pre-incubation of memapsin 2 enzyme with compound for 20 minutes. Activity measure was initiated by addition of a fluorogenic substrate FS-2 (Bachem Americas, Torrance, Calif.). Fluorescent signal increase over time was measured as a rate of hydrolysis of the peptide substrate. […]

[2] abbreviates: Cricetulus griseus, CHO, read-out: Cell, Aβ40, CHO cells over-expressing human APP695 (London and Swedish mutations), 24 h.

Molecules are shown by their SMILES. Where a name gives a salt, the structure may show the parent alone. Read-outs that look alike come from different tables or passages of the source. A value given as a limit tells only on which side of the number the result lay.

memapsin 2, sequence (P56817 46-501): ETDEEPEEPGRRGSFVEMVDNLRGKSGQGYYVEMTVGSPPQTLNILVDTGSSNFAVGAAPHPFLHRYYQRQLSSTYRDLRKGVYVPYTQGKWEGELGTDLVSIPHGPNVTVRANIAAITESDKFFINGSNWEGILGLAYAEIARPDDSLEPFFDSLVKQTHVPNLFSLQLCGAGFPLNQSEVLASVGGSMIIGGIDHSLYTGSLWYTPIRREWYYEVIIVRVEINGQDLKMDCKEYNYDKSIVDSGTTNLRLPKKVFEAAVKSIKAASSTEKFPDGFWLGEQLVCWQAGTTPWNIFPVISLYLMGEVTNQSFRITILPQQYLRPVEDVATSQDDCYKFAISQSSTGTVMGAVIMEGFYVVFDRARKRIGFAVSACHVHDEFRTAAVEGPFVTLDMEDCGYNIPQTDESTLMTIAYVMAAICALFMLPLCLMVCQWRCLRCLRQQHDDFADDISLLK

With `COc1cccc(CN(CC(O)C(Cc2ccccc2)NC(=O)c2cc(C(=O)NC(C)c3ccccc3)cc(N(C)S(C)(=O)=O)c2)C(=O)CCC(=O)OCC(O)C2OC(=O)C(O)=C2O)c1` (centres unmarked) [2-(3,4-dihydroxy-5-oxo-2,5-dihydrofuran-2-yl)-2-hydroxyethyl 4-((2-hydroxy-3-(3-(N-methylmethylsulfonamido)-5-(1-phenylethylcarbamoyl)benzamido)-4-phenylbutyl)(3-methoxybenzyl)amino)-4-oxobutanoate], in assay [1] (setting [2]), the IC50 is 1000 to 5000 nM.
Turning to `COc1cccc(CNCC(O)C(Cc2cc(F)cc(F)c2)NC(=O)c2cc(C(=O)NC(C)c3ccccc3)cc(N(C)S(C)(=O)=O)c2)c1` (centres unmarked) [N1-(1-(3,5-difluorophenyl)-3-hydroxy-4-(3-methoxybenzylamino)butan-2-yl)-5-(N-methylmethylsulfonamido)-N3-(1-phenylethyl)isophthalamide], the IC50 in assay [1] (setting [2]) is below 1000 nM.
`COc1cccc(CNCC(O)C(Cc2ccccc2)NC(=O)c2cc(C(=O)NC(C)c3cccc(F)c3)cc(N(C)S(C)(=O)=O)c2)c1` (centres unmarked) [N1-(1-(3-fluorophenyl)ethyl)-N3-(3-hydroxy-4-(3-methoxybenzylamino)-1-phenylbutan-2-yl)-5-(N-methylmethylsulfonamido)isophthalamide]: at memapsin 2, the Ki was below 300 nM.
Same read-out and setting: the value for `COc1cccc(CNCC(O)C(Cc2ccccc2)NC(=O)c2cc(C(=O)NC(C)C3COC4OCCC43)cc(N(C)S(C)(=O)=O)c2)c1` (centres unmarked) [N1-(1-(hexahydrofuro[2,3-b]furan-3-yl)ethyl)-N3-(3-hydroxy-4-(3-methoxybenzylamino)-1-phenylbutan-2-yl)-5-(N-methylmethylsulfonamido)isophthalamide] was above 501 nM.
The same measure, in the same setting: the value for `CC(NC(=O)c1cc(C(=O)NC(Cc2ccccc2)C(O)CNCc2cn(COCC[Si](C)(C)C)cn2)cc(N(C)S(C)(=O)=O)c1)c1ccccc1` (centres unmarked) [N1-(3-hydroxy-1-phenyl-4-((1-((2-(trimethylsilyl)ethoxy)methyl)-1H-imidazol-4-yl)methylamino)butan-2-yl)-5-(N-methylmethylsulfonamido)-N3-(1-phenylethyl)isophthalamide] was below 300 nM; that for `COc1cccc(C(C)NCC(O)C(Cc2ccccc2)NC(=O)c2cccc(C(=O)N(C)Cc3nc(C)cs3)c2)c1` (centres unmarked) [N1-(3-hydroxy-4-(1-(3-methoxyphenyl)ethylamino)-1-phenylbutan-2-yl)-N3-methyl-N3-((4-methylthiazol-2-yl)methyl)isophthalamide] was below 300 nM; that for `Cc1csc(CN(C)C(=O)c2cccc(C(=O)NC(Cc3ccccc3)C(O)CNCc3cccc(OCC(C)C)c3)c2)n1` (centres unmarked) [N1-(3-hydroxy-4-(3-isobutoxybenzylamino)-1-phenylbutan-2-yl)-N3-methyl-N3-((4-methylthiazol-2-yl)methyl)isophthalamide] was below 300 nM.
As to `COc1cccc(CNCC(O)C(Cc2ccccc2)NC(=O)c2cc(C(=O)NC(C)c3nc(C)cs3)cc(N(C)S(C)(=O)=O)c2)c1` (centres unmarked) [N1-(3-hydroxy-4-(3-methoxybenzylamino)-1-phenylbutan-2-yl)-5-(N-methylmethylsulfonamido)-N3-(1-(4-methylthiazol-2-yl)ethyl)isophthalamide], in assay [1] (setting [2]), the IC50 was below 1000 nM.
As for `COc1cccc(CNCC(O)C(Cc2ccccc2)NC(=O)c2cccc(C(=O)N(Cc3nc(C)cs3)CC(C)C)c2)c1` (centres unmarked) [N1-(3-hydroxy-4-(3-methoxybenzylamino)-1-phenylbutan-2-yl)-N3-isobutyl-N3-((4-methylthiazol-2-yl)methyl)isophthalamide], the Ki at memapsin 2 is below 300 nM.
On the same count and under the same terms, the value for `COc1cccc(CNCC(O)C(Cc2ccccc2)NC(=O)c2cccc(C(=O)N(C)Cc3coc(C)n3)c2)c1` (centres unmarked) [N1-(3-hydroxy-4-(3-methoxybenzylamino)-1-phenylbutan-2-yl)-N3-methyl-N3-((2-methyloxazol-4-yl)methyl)isophthalamide] was below 300 nM.
Still for that read-out and setting: the value for `COc1cccc(CNCC(O)C(Cc2ccccc2)NC(=O)c2cccc(C(=O)N(C)Cc3cnccn3)c2)c1` (centres unmarked) [N1-(3-hydroxy-4-(3-methoxybenzylamino)-1-phenylbutan-2-yl)-N3-methyl-N3-(pyrazin-2-ylmethyl)isophthalamide] was above 501 nM; that for `Cc1ccc(CNCC(O)C(Cc2ccccc2)NC(=O)c2cccc(C(=O)N(C)Cc3nc(C)cs3)c2)cc1` (centres unmarked) [N1-(3-hydroxy-4-(4-methylbenzylamino)-1-phenylbutan-2-yl)-N3-methyl-N3-((4-methylthiazol-2-yl)methyl)isophthalamide] was above 501 nM.
On to `COc1ccccc1CN1CCC(CNCC(O)C(Cc2ccccc2)NC(=O)c2cc(C(=O)NC(C)c3ccccc3)cc(N(C)S(C)(=O)=O)c2)CC1` (centres unmarked) [N1-(3-hydroxy-4-((1-(2-methoxybenzyl)piperidin-4-yl)methylamino)-1-phenylbutan-2-yl)-5-(N-methylmethylsulfonamido)-N3-(1-phenylethyl)isophthalamide dihydrochloride], for which the IC50 in assay [1] (read-out: Cell, Aβ40, CHO cells over-expressing human APP695 (London and Swedish mutations), dihydrochloride) was above 5000 nM.
For the compound `CC(NC(=O)c1cc(C(=O)NC(Cc2ccccc2)C(O)CNCC2CCCN2C(C)C)cc(N(C)S(C)(=O)=O)c1)c1ccccc1` (centres unmarked) [N1-(3-hydroxy-4-((1-isopropylpyrrolidin-2-yl)methylamino)-1-phenylbutan-2-yl)-5-(N-methylmethylsulfonamido)-N3-(1-phenylethyl)isophthalamide], the Ki on memapsin 2 was above 501 nM.
On to `Cc1cc(CNCC(O)C(Cc2ccccc2)NC(=O)c2cc(C(=O)NC(C)c3ccccc3)cc(N(C)S(C)(=O)=O)c2)[nH]n1` (centres unmarked) [N1-(3-hydroxy-4-((3-methyl-1H-pyrazol-5-yl)methylamino)-1-phenylbutan-2-yl)-5-(N-methylmethylsulfonamido)-N3-(1-phenylethyl)isophthalamide], for which, on memapsin 2, the Ki was above 501 nM.
Same read-out and setting: the value for `CCOc1cccc(CNCC(O)C(Cc2ccccc2)NC(=O)c2cccc(C(=O)N(C)Cc3nc(C)cs3)c2)c1` (centres unmarked) [N1-(4-(3-ethoxybenzylamino)-3-hydroxy-1-phenylbutan-2-yl)-N3-methyl-N3-((4-methylthiazol-2-yl)methyl)isophthalamide] was below 300 nM; that for `Cc1csc(CN(C)C(=O)c2cccc(C(=O)NC(Cc3ccccc3)C(O)CNCc3ccccc3)c2)n1` (centres unmarked) [N1-(4-(benzylamino)-3-hydroxy-1-phenylbutan-2-yl)-N3-methyl-N3-((4-methylthiazol-2-yl)methyl)isophthalamide] was above 501 nM; that for `COc1cccc(CNCC(O)C(Cc2ccccc2)NC(=O)c2cccc(C(=O)N(Cc3ccccc3)Cc3nc(C)cs3)c2)c1` (centres unmarked) [N1-benzyl-N3-(3-hydroxy-4-(3-methoxybenzylamino)-1-phenylbutan-2-yl)-N1-((4-methylthiazol-2-yl)methyl)isophthalamide] was below 300 nM.
Same read-out and setting: the value for `COc1cccc(CNCC(O)C(Cc2ccccc2)NC(=O)c2cccc(C(=O)N(Cc3nc(C)cs3)C3CCCCC3)c2)c1` (centres unmarked) [N1-cyclohexyl-N3-(3-hydroxy-4-(3-methoxybenzylamino)-1-phenylbutan-2-yl)-N1-((4-methylthiazol-2-yl)methyl)isophthalamide] was 301 to 500 nM; that for `COc1cccc(CNCC(O)C(Cc2ccccc2)NC(=O)c2cccc(C(=O)N(Cc3nc(C)cs3)C3CCCC3)c2)c1` (centres unmarked) [N1-cyclopentyl-N3-(3-hydroxy-4-(3-methoxybenzylamino)-1-phenylbutan-2-yl)-N1-((4-methylthiazol-2-yl)methyl)isophthalamide] was below 300 nM.

The record behind these values is patent US7504420B2, “Compounds which inhibit beta-secretase activity and methods of use” (CoMentis, Inc., priority 2005, dated 2009).
